According to US8110681B2, “Compounds for the treatment of spinal muscular atrophy and other uses” (The United States of America as represented by the …, priority 2006, dated 2012):
Several values for one entry are separate records, joined by “and”; a condition that tells them apart may be missing. Equal entries are not always repeated. Where two headings read alike, the source gives them in different places. Each block holds one molecule with its values, some of them ahead of it.

Tests used:
[1] = test system: SMN2-linked luciferase-reporter gene construct; test: SMN splice reporter assay (SMN2-linked luciferase reporter, Example 10); type: cell-based; conditions: for maximal fold induction: read-out: SMN Splice Reporter Assay (Example 10) Avg MaxFold Increase
How it was run: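 Values are fold-increase in luciferase signal relative to baseline cells without compound. The cervical carcinoma line used holds a fusion of alternatively spliced SMN2 sequence and luciferase. Readable frame, and thus signal, arises only with exon 7-including splicing.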

[2] = test system: SMN-containing gems in fibroblast cells from a type 1 SMA patient (3813 cells); test: Gem count by immunohistochemistry in type 1 SMA patient fibroblasts (3813 cells); type: cell-based, human; conditions: for Number of gems per 100 nuclei, Treated Cells: 48 hours
Description: SMN protein can be found in punctate nuclear particles called “gems” (Liu and Dreyfuss, EMBO J. 15(14): 3555-3565 (1996)). In fibroblast cells derived from SMA patients, the number of gems corresponds to disease severity as follows: severe type 1 patients have approximately 5 gems per 100 nuclei; mild type 3 patients have 20-50 gems per 100 nuclei; normal individuals have approximately 100-150 gems per 100 nuclei (Coovert et al., Hum Mol Genet 6(8): 1205-1214 (1997), Young et al., Exp Cell Res 265(2): 252-261 (2001)).
Following these methods, fibroblast cells from a type 1 SMA patient (3813 cells, Coriell Cell Repositories) were treated for 48 hours with the compounds indicated in Table 2 (reference number—structure correlation is provided in Table 1). The cells were then fixed and incubated with a monoclonal antibody against SMN (4B7, Wolstencroft et al., Hum Mol Genet 14:1199-1210 (2005)). A FITC-conjugated anti-mouse secondary antibody was used to visualize the labeled gems.

[3] = test system: luciferase reporter containing the UAG stop codon; test: Translational read-through luciferase reporter assay, UAG stop codon; type: cell-based; conditions: read-out: MaxFold Increase
Description: This assay is described in detail in WO 01/44516 A2. This is a cell-based luciferase reporter assay designed to detect translational read-through via insertion of a translational stop codon within the luciferase coding sequence. In the presence of compounds that promote read-through of translational stop codons, active luciferase is produced and detected via chemiluminescence. We have shown that indoprofen analogs are active in two versions of this assay—one containing a UGA stop codon and one containing a UAG stop codon. The data in the table is from the luciferase reporter containing the UAG stop codon. This is the first stop codon downstream of the improper splice junction between exons 6 and 8 in the human SMN2 transcript.

[4] = test system: human GLT-1/EAAT-2 promoter; test: GLT-1/EAAT-2 promoter luciferase reporter assay in COS-7 cells; type: cell-based; conditions: COS-7 pE2P-GL3 (clone 4), 48 h; for maximal fold induction: Homo sapiens, normalized to DMSO control, read-out: Max Fold-Induction
Method: The astroglial glutamate transporter, GLT-1/EAAT-2, is responsible for the majority of glutamate transport in the brain and spinal cord. […] Results from each plate were normalized to the DMSO treated control wells and expressed as fold-induction. EC50 values were calculated using GraphPad Prism software.

[5] = Plasma and brain pharmacokinetics in mice; type: in vivo, FVB or CD-1 mice; conditions: single dose; for half-life / Kp / AUC: mouse; for Kp: brain and plasma, read-out: Brain/Plasma Ratio
Method: Compounds were formulated in solution using the method of cosolvency as described by Lee et al., Int. J. Pharmaceutics, 253: 111-119 (2003). FVB or CD-1 mice, approximately 5 weeks old, were given a single dose of compound at the indicated concentration. Compounds were administered orally, with the exception of ALB-116638 and ALB-117573, which were administered IV. Three to five mice were euthanized at various times between 15 minutes and 24 hours after dosing and brain and plasma were harvested. Tissues were homogenized in acetonitrile and analyzed on an API 4000 LC/MS/MS system coupled with an Agilent 1100 series liquid chromatograph. All pharmacokinetic analyses were conducted using WinNonlin (Version 4.01; Pharsight, Palo Alto, Calif.) with the exception of brain/plasma ratios, which were calculated using Microsoft Excel 2000. AUC values are the area under the concentration-time curve from time zero to the last measured time point. The half life values are extrapolated from 3-4 time points taken at less than 4 hours after dosing.

[6] = SMN2-linked luciferase reporter, average
[7] = SMN2-linked luciferase reporter, average maximum fold increase
[8] = brain, 5 mg/kg, IV, read-out: Brain T½ (converted)
[9] = maximum fold increase of reporter signal, average
[10] = brain, 5 mg/kg, oral, read-out: Brain T½ (converted)
[11] = plasma, 5 mg/kg, oral, read-out: Plasma T½ (converted)

Compound: CC(C)c1ccc(N2Cc3ccc(OC(F)F)cc3C2=O)cc1 [ALB-116244]
EC50 [1, 6]: 0.599 µM
maximal fold induction [1, 7]: 1.57
Number of gems per 100 nuclei, Treated Cells ([2]; 0.1 μM): 44 gems per 100 nuclei
maximal fold induction [3]: 2.8

Compound: CC(C)c1ccc(N2Cc3ccc(NS(C)(=O)=O)cc3C2=O)cc1 [ALB-116486]
EC50 [1, 6]: 0.757 µM
maximal fold induction [1, 7]: 1.49
maximal fold induction [4]: 1.17
maximal fold induction [3]: 2.4

Compound: CCCC(CCC)C(=O)O [Positive Control, valproic acid, reference compound]
Number of gems per 100 nuclei, Positive Control ([2]; 1000 μM valproic acid, same patient fibroblasts): 31 gems per 100 nuclei and 38.7 gems per 100 nuclei

Compound: CC(C)c1ccc(N2Cc3ccc(NC(N)=O)cc3C2=O)cc1 [ALB-117573]
EC50 [1, 6]: 0.345 µM
maximal fold induction [1, 7]: 1.67
maximal fold induction [3]: 4.4
Brain AUC ([5]; 5 mg/kg, IV): 64.5 ng·h/g
half-life [5, 8]: 7.4 h

Compound: CC(C(=O)O)c1ccc(N2Cc3ccc(C(F)(F)F)cc3C2=O)cc1 (stereo not shown) [ALB-113652]
EC50 [1, 6]: 1.49 µM
maximal fold induction [1, 9]: 1.66
maximal fold induction [3]: 2.9

Compound: COCC(C)c1ccc(N2Cc3ccc(OC)cc3C2=O)cc1 (stereo not shown) [ALB-114783]
EC50 [1, 6]: 0.186 µM
maximal fold induction [1, 9]: 1.37
maximal fold induction [3]: 2.6

Compound: CC(C)c1ccc(N2Cc3ccc(N(C)S(C)(=O)=O)cc3C2=O)cc1 [ALB-116638]
EC50 [1, 6]: 0.166 µM
maximal fold induction [1, 7]: 1.51
Brain AUC ([5]; 5 mg/kg, IV): 537.2 ng·h/g
half-life [5, 8]: 7.3 h

Compound: CC(C)c1ccc(N2Cc3ccc(C(F)(F)F)cc3C2=O)cc1 [ALB-117902]
EC50 [1, 6]: 1.1 µM
maximal fold induction [1, 9]: 1.57
maximal fold induction [3]: 2

Compound: Br.COCC(C)c1ccc(N2Cc3ccc(C)cc3C2=O)cc1 (stereo not shown) [ALB-113967]
EC50 [1, 6]: 0.159 µM
maximal fold induction [1, 9]: 1.54
maximal fold induction [3]: 2.6
Brain AUC ([5]; 5 mg/kg, oral): 170.5 ng·h/g
Kp ([5]; 5 mg/kg, oral): 0.29
half-life [5, 10]: 1.1 h
AUC ([5]; plasma, 5 mg/kg, oral): 595 ng·h/mL
half-life [5, 11]: 1.5 h

Compound: COc1ccc2c(c1)C(=O)N(c1ccc(C(C)C(=O)OC(C)(C)C)cc1)C2 (stereo not shown) [ALB-112354]
EC50 [1, 6]: 0.801 µM
maximal fold induction [1, 9]: 1.46
EC50 [4]: 0.221 µM
maximal fold induction [4]: 1.93
maximal fold induction [3]: 2

Compound: CCOc1ccc2c(c1)C(=O)N(c1ccc(C(C)C)cc1)C2 [ALB-116074]
EC50 [1, 6]: 0.31 µM
maximal fold induction [1, 9]: 1.51
maximal fold induction [3]: 2.9

Compound: CC(C(=O)O)c1ccc(N2Cc3ccc(Cl)cc3C2=O)cc1 (stereo not shown) [ALB-111743]
EC50 [1, 6]: 0.267 µM
maximal fold induction [1, 9]: 1.67
maximal fold induction [3]: 2.7

Compound: CC(C)c1ccc(N2Cc3cc4c(cc3C2=O)OCCO4)cc1 [ALB-115498]
EC50 [1, 6]: 0.203 µM
maximal fold induction [1, 9]: 1.83
Number of gems per 100 nuclei, Treated Cells ([2]; 1 μM): 14.3 gems per 100 nuclei
maximal fold induction [4]: 0.86
Brain AUC ([5]; 5 mg/kg, oral): 163.8 ng·h/g
Kp ([5]; 5 mg/kg, oral): 3.43
half-life [5, 10]: 0.5 h
AUC ([5]; plasma, 5 mg/kg, oral): 47.8 ng·h/mL
half-life [5, 11]: 0.6 h

Compound: CCCC(C)c1ccc(N2Cc3ccc(OC)cc3C2=O)cc1 (stereo not shown) [ALB-117451]
EC50 [1, 6]: 2.91 µM
maximal fold induction [1, 9]: 1.74
maximal fold induction [3]: 2.1

Compound: COCC(C)c1ccc(N2Cc3cc4c(cc3C2=O)OCCO4)cc1 (stereo not shown) [ALB-116361]
EC50 [1, 6]: 3.56 µM
maximal fold induction [1, 9]: 1.9
EC50 [4]: 0.00679 µM
maximal fold induction [4]: 1.54

Compound: CC(CN(C)C)c1ccc(N2Cc3ccccc3C2=O)cc1 (stereo not shown) [ALB-113968]
EC50 [1, 6]: 6.03 µM
maximal fold induction [1, 9]: 1.37
EC50 [4]: 1.27 µM
maximal fold induction [4]: 1.78

Compound: COc1ccc2c(c1)C(=O)N(c1ccc(C(C)(C)C)cc1)C2 [ALB-115210]
EC50 [1, 6]: 0.324 µM
maximal fold induction [1, 9]: 1.47
maximal fold induction [3]: 2.9
Brain AUC ([5]; 5 mg/kg, oral): 553.8 ng·h/g
Brain AUC ([5]; 25 mg/kg, oral): 5950.9 ng·h/g
Kp ([5]; 5 mg/kg, oral): 51.7
Kp ([5]; 25 mg/kg, oral): 15
half-life [5, 10]: 0.6 h
half-life ([5]; brain, 25 mg/kg, oral, read-out: Brain T½ (converted)): 2.9 h
AUC ([5]; plasma, 5 mg/kg, oral): 10.7 ng·h/mL
half-life [5, 11]: 9.4 h
AUC ([5]; plasma, 25 mg/kg, oral): 397 ng·h/mL
half-life ([5]; plasma, 25 mg/kg, oral, read-out: Plasma T½ (converted)): 1.1 h

Compound: CC(C)c1ccc(N2Cc3cc4c(cc3C2=O)OCO4)cc1 [ALB-116362]
EC50 [1, 6]: 0.123 µM
maximal fold induction [1, 7]: 1.52
maximal fold induction [3]: 2.3

Compound: Cc1cccc2c1C(=O)N(c1ccc(C(C)C)cc1)C2 [ALB-115812]
EC50 [1, 6]: 0.163 µM
maximal fold induction [1, 9]: 1.35
maximal fold induction [3]: 3

Compound: CC(C)(C)c1ccc(N2Cc3cc4c(cc3C2=O)OCCO4)cc1 [ALB-117452]
EC50 [1, 6]: 0.289 µM
maximal fold induction [1, 7]: 1.4
maximal fold induction [3]: 2.2

Compound: CC(C(N)=O)c1ccc(N2Cc3ccccc3C2=O)cc1 (stereo not shown) [ALB-112171]
EC50 [1, 6]: 6.72 µM
maximal fold induction [1, 9]: 1.34
EC50 [4]: 0.46 µM
maximal fold induction [4]: 1.9
maximal fold induction [3]: 2.2

Continued by falling EC50 [1, 6], values first:

EC50 [1, 6]: 0.097 µM
Compound: Cc1ccc2c(c1)C(=O)N(c1ccc(C(C)C)cc1)C2 [ALB-115586]
maximal fold induction [1, 9]: 1.32
maximal fold induction [3]: 2.3

EC50 [1, 6]: 0.083 µM
Brain AUC ([5]; 5 mg/kg, oral): 570.0 ng·h/g
Kp ([5]; 5 mg/kg, oral): 0.03
half-life [5, 10]: 2.6 h
AUC ([5]; plasma, 5 mg/kg, oral): 21100 ng·h/mL
half-life [5, 11]: 7.6 h
Compound: COc1ccc2c(c1)C(=O)N(c1ccc(C(C)C(=O)O)cc1)C2 (stereo not shown) [ALB-112355]
maximal fold induction [1, 9]: 1.85
Number of gems per 100 nuclei, Treated Cells ([2]; 0.45 μM): 5.3 gems per 100 nuclei
maximal fold induction [3]: 2.7

EC50 [1, 6]: 0.081 µM
Compound: CC(C)c1ccc(N2Cc3cc(Cl)ccc3C2=O)cc1 [ALB-116932]
maximal fold induction [1, 9]: 1.45
maximal fold induction [3]: 2.4

EC50 [1, 6]: 0.078 µM
Brain AUC ([5]; 5 mg/kg, oral): 338.1 ng·h/g
half-life [5, 10]: 9.4 h
Compound: COCc1ccc2c(c1)C(=O)N(c1ccc(C(C)C)cc1)C2 [ALB-116935]
maximal fold induction [1, 9]: 1.52
maximal fold induction [3]: 1.9

EC50 [1, 6]: 0.06 µM
Compound: COc1ccc2c(c1)C(=O)N(c1ccc(C)cc1)C2 [ALB-115084]
maximal fold induction [1, 9]: 1.39
maximal fold induction [3]: 2.3

EC50 [1, 6]: 0.052 µM
Compound: CC(C)c1ccc(N2Cc3ccccc3C2=O)cc1 [ALB-114274]
maximal fold induction [1, 9]: 1.4
maximal fold induction [3]: 2.6

EC50 [1, 6]: 0.05 µM
Compound: CN(C)Cc1ccc(N2Cc3ccccc3C2=O)cc1 [ALB-116255]
maximal fold induction [1, 9]: 1.09
maximal fold induction [4]: 1.2

EC50 [1, 6]: 0.041 µM
Compound: CC(C)c1ccc(N2Cc3ccc(N(C)C)cc3C2=O)cc1 [ALB-115806]
maximal fold induction [1, 9]: 1.47
Number of gems per 100 nuclei, Treated Cells ([2]; 0.4 μM): 8 gems per 100 nuclei
maximal fold induction [4]: 0.87
maximal fold induction [3]: 2

EC50 [1, 6]: 0.03 µM
Compound: Cc1ccc2c(c1)CN(c1ccc(C(C)C)cc1)C2=O [ALB-115948]
maximal fold induction [1, 9]: 1.42
maximal fold induction [3]: 2.8

EC50 [1, 6]: 0.028 µM
Compound: CC(C(=O)O)c1ccc(N2Cc3ccc(N(C)C)cc3C2=O)cc1 (stereo not shown) [ALB-113648]
maximal fold induction [1, 9]: 1.6
maximal fold induction [3]: 3.3

EC50 [1, 6]: 0.008 µM
Compound: CC(C(=O)O)c1ccc(N2Cc3cc4c(cc3C2=O)OCCO4)cc1 (stereo not shown) [ALB-114844]
maximal fold induction [1, 9]: 1.36
maximal fold induction [3]: 2.4
